What was measured:
lung = experiment: In vivo mRNA delivery, IVIS imaging of organs: lung; design: species or system mice; key to Organs with luminescence: lung: strong: Strong meant the luminescence intensity in that organ was relatively high, compared to other organs; weak: Weak meant the luminescence intensity in that organ was relatively low, compared to other organs; conditions: for Organs with luminescence: lung: Table 17, IVIS, 4-6 h after injection, intensity relative to other organs
Method: (§1) The exposure time was 1 min.
(§2) Tissue luminescence signal was measured on the IVIS imaging system using an exposure time of 60 seconds using medium binning (binning=8) to ensure that the signal obtained was within operative detection range. […] Bioluminescence imaging was performed as described above.
(§3) Tissue luminescence signal was measured on the IVIS imaging system using a certain exposure time (60, 30 or 15 seconds) and medium binning (binning=8) to ensure that the signal obtained was within operative detection range.

spleen = experiment: In vivo mRNA delivery, IVIS imaging of organs: spleen; design: species or system mice; key to Organs with luminescence: spleen: strong: Strong meant the luminescence intensity in that organ was relatively high, compared to other organs; weak: Weak meant the luminescence intensity in that organ was relatively low, compared to other organs; conditions: for Organs with luminescence: spleen (weak/strong): Table 14; for Organs with luminescence: spleen: Table 17, mice, IVIS, 4-6 h after injection, intensity relative to other organs
Method: as §1, §2, §3

[1] = Dimensions (size, PDI) of DNPs co-assembled from IAJDs and Luc-mRNA by DLS; assay type: physicochemical
Method: Dynamic Light Scattering (DLS) for the DNPs was performed in buffer with a Malvern Instruments particle sizer (Zetasizer Nano S, Malvern Instruments, UK) equipped with 4 mW He—Ne laser 633 nm and avalanche photodiode positioned at […] to the beam and temperature-controlled cuvette holder. Instrument parameters were determined automatically along with measurement times.
Formulation of DNPs Containing mRNA-Luc: IAJDs were dissolved in ethanol with various initial concentrations (5-160 mg/mL). Nucleoside-modified mRNA encoding firefly luciferase (mRNA-Luc) was dissolved in water with various initial concentrations (1-4 mg/mL). 12.5 μL of mRNA solution was placed into a clean RNAs free eppendorf (1.5 mL) and mixed with 463 μL of citrate buffer (10 mM, pH 3.0)/acetate buffer (10 mM). For encapsulation of mRNA into IAJDs, 25 μL of IAJDs of the ethanol stock solution was rapidly injected into mRNA solution in citrate or acetate buffer followed by vortex for 5 seconds.
(§4) Dynamic Light Scattering (DLS) for the sizes and polydispersities of DNPs was performed on a Malvern Instruments particle sizer (Zetasizer Nano S, Malvern Instruments, UK) equipped with 4 mW He—Ne laser 633 nm and avalanche photodiode positioned at 1750 to the beam and temperature-controlled cuvette holder. Instrument parameters were determined automatically along with measurement times. Sample solution (0.4 mL) was placed in a semi-micro cuvette (1.6 mL, polystyrene, 10×10×45 mm, manufactured by Greiner Bio-One) and the measurements were performed at 23° C.
Formulation of DNPs obtained by co-assembly of IAJDs and Luc-mRNA was performed as follows. IAJDs were dissolved in ethanol with an initial concentration of 80 mg/mL. Nucleoside-modified mRNA encoding firefly luciferase (Luc-mRNA) was dissolved in UltraPure DNase/RNase-free distilled water with an initial concentration of 4.0 mg/mL. 12.5 μL of Luc-mRNA solution was placed into a clean RNAs free eppendorf (1.5 mL) and 463 μL acetate buffer (10 mM, pH 4.0) was added. Then, 25 μL of IAJD in the ethanol stock solution was rapidly injected into the Luc-mRNA solution in acetate buffer followed by vortex for 5 seconds.
as §4, with “dimensions (sizes” for “sizes”, “polydispersities)” for “polydispersities”, “175°” for “1750”, “set up” for “determined”, “(c.a. 0.4” for “(0.4”, “mm,” for “mm, manufactured by”
Formulation of DNPs Co-assembled from IAJDs and Luc-mRNA: nucleoside-modified mRNA encoding firefly luciferase (Luc-mRNA) was dissolved in UltraPure DNase/RNase-free distilled water with an initial concentration of 4.0 mg/mL. IAJD molecules were dissolved in ethanol with an initial concentration of 80 mg/mL. 12.5 μL of Luc-mRNA solution was taken and placed into a clean RNAs free eppendorf (1.5 mL). Then 463 μL of acetate buffer (10 mM, pH 4.0) was added. Afterwards, 25 μL of IAJD in the ethanol stock solution was taken and rapidly injected into the above Luc-mRNA solution in acetate buffer followed by vortex for 5 seconds.

[2] = pKa measurements of individual IAJD molecules by titration; assay type: physicochemical; conditions: ethanol saturated with NaCl, titrated with 0.1 M aqueous HCl, titration
Method: pKa measurements of individual IAJD Molecules was performed as follows. IAJD Molecules were first dissolved in ethanol (Sat. with NaCl) at a concentration of 1.5 mg/mL and the solution volume was 3 mL.
Then 0.1 M HCl solution was added to the above ethanol solution with an increment of 7.5 μL. The resulting pH after each addition of HCl solution was measured by an Thermo Scientific Orion Star A121 meter with Thermo Scientific Orion 8220BNWP pH probe. pKa was determined using the half equivalence point titration.

[3] = Table 12, DNPs, IAJD 4 mg/mL + Luc-mRNA 0.10 mg/mL, acetate buffer 10 mM pH 4.0
[4] = Table 13, DNPs, IAJD 4 mg/mL + Luc-mRNA 0.10 mg/mL, acetate buffer pH 4.0
[5] = Table 14, DNPs, IAJD 4 mg/mL + Luc-mRNA 0.10 mg/mL, acetate buffer pH 4.0
[6] = Table 15, individual IAJD molecule
[7] = Acetate buffer 10 mM pH 4.0, CIAJD 4 mg/mL, CLuc-mRNA 0.05 mg/mL
[8] = Acetate buffer 10 mM pH 4.0, CIAJD 4 mg/mL, CLuc-mRNA 0.10 mg/mL
[9] = Citrate buffer 10 mM pH 3.0, CIAJD 4 mg/mL, CLuc-mRNA 0.05 mg/mL
[10] = DNP for in vivo, CIAJD 4.0 mg/mL, CLuc-mRNA 0.1 mg/mL, acetate buffer pH 4.0
[11] = Table 16, DNPs from IAJD 4 mg/mL and Luc-mRNA 0.10 mg/mL by injection in acetate buffer (10 mM, pH 4.0)
[12] = Table 17, DNPs used in vivo, IAJD 4 mg/mL, Luc-mRNA 0.10 mg/mL, acetate pH 4.0
[13] = Acetate buffer 10 mM pH 5.2, CIAJD 4 mg/mL, CLuc-mRNA 0.10 mg/mL
[14] = DNP for in vivo, CIAJD 4.0 mg/mL, CLuc-mRNA 0.1 mg/mL, acetate buffer pH 5.2

| Molecule | PDI [1, 11] | Size (d, nm) [1, 11] [nm] | PDI [1, 12] | Size (d, nm) [1, 12] [nm] | pKa ([2]; individual IAJD molecules) | Organs with luminescence: lung (lung; mice) | also measured |
| --- | --- | --- | --- | --- | --- | --- | --- |
| CCCCCCCCCCCCCCCCCCOc1cc(COC(=O)CCCN2CCN(CCO)CC2)cc(OCCCCCCCCCCCCCCCCCC)c1 [IAJD 99, 3,5-Bis(octadecyloxy)benzyl 4-(4-(2-hydroxyethyl)piperazin-1-yl)butanoate] | – | – | – | – | – | – | Organs with luminescence: lung (weak/strong) (lung; Table 14, imaging 6 h after injection): Lung (weak),; Organs with luminescence: spleen (weak/strong) (spleen; imaging 6 h after injection): spleen (strong); PDI [1, 3]: 0.571; Size (d, nm) [1, 3]: 277 nm; PDI [1, 4]: 0.571; Size (d, nm) [1, 4]: 277 nm; PDI [1, 5]: 0.571; Size (d, nm) [1, 5]: 277 nm; pKa [2, 6]: 6.31 |
| Diheptyl 5,5′-((5-(((4-(4-methylpiperazin-1-yl)butanoyl)oxy)methyl)-1,3-phenylene)bis(oxy)) dipentanoate [IAJD 85] | – | – | – | – | – | – | PDI [1, 7]: 0.352; Size (d, nm) [1, 7]: 99 nm; PDI [1, 8]: 0.254; Size (d, nm) [1, 8]: 115 nm; PDI [1, 9]: 0.361; PDI [1, 10]: 0.254; Size (d, nm) [1, 10]: 115 nm |
| CCCCCCCCCCCCOc1cc(COC(=O)c2cc(OCCOCCOCCCC(=O)CCCN3CCCCC3)c(OCCOCCOCCOCc3ccccc3)c(OCCOCCOCCOC(=O)CCCN3CCCCC3)c2)cc(OCCCCCCCCCCCC)c1 [IAJD 110] | 0.274 | 111 | 0.274 | 111 | 7.64 | Lung (strong) | activity in lung (in words) (lung; mice, Luc-mRNA DNPs): very high activity to lung |
| 3,5-Bis(dodecyloxy)benzyl 3-(4-methylpiperazin-1-yl)propanoate [IAJD 84] | – | – | – | – | – | – | PDI [1, 7]: 0.493; Size (d, nm) [1, 7]: 106 nm; PDI [1, 13]: 0.311; Size (d, nm) [1, 13]: 199 nm; PDI [1, 9]: 0.283; Size (d, nm) [1, 9]: 192 nm; PDI [1, 14]: 0.311; Size (d, nm) [1, 14]: 199 nm |
| CCCCCCCCCCCCCCCOc1cc(COC(=O)c2cc(OCCOCCOCCCC(=O)CCCN3CCCCC3)c(OCCOCCOCCOCc3ccccc3)c(OCCOCCOCCOC(=O)CCCN3CCCCC3)c2)cc(OCCCCCCCCCCC)c1 [IAJD 157] | 0.238 | 68 | 0.238 | 68 | 7.42 | Lung (strong) | – |
| CCCCCCCCCCCCCCCCCOc1cc(COC(=O)CCCN2CCN(CCO)CC2)cc(OCCCCCCCCCCCCCCC)c1 [IAJD 152, 3-(Heptadecyloxy)-5-(pentadecyloxy)benzyl 4-(4-(2-hydroxyethyl)piperazin-1-yl)butanoate] | 0.370 | 281 | 0.370 | 281 | 6.65 | – | Organs with luminescence: spleen (spleen): spleen (strong) |
| CCCCCCCCCCCCOCC(COCCCCCCCCCCCC)(COCCCCCCCCCCCC)COC(=O)CCCN1CCN(C)CC1 [IAJD 82, 3-(Dodecyloxy)-2,2-bis((dodecyloxy)methyl)propyl 4-(4-methylpiperazin-1-yl)butanoate] | – | – | – | – | – | – | Organs with luminescence: spleen (weak/strong) (spleen; imaging 5 h after injection): Spleen (strong); PDI [1, 3]: 0.144; Size (d, nm) [1, 3]: 162 nm; PDI [1, 4]: 0.144; Size (d, nm) [1, 4]: 162 nm; PDI [1, 5]: 0.144; Size (d, nm) [1, 5]: 162 nm; pKa [2, 6]: 6.18 |
| CCCCCCCCCCCOc1cc(COC(=O)CCCN2CCN(CCO)CC2)cc(OCCCCCCCC)c1 [IAJD 113, 3-(Octyloxy)-5-(undecyloxy)benzyl 4-(4-(2-hydroxyethyl)piperazin-1-yl)butanoate] | 0.511 | 181 | 0.511 | 181 | 6.52 | – | Organs with luminescence: spleen (spleen): Spleen (strong) |
| CCCCCCCCCCCCCCCCCOc1cc(COC(=O)c2cc(OCCOCCOCCCC(=O)CCCN3CCCCC3)c(OCCOCCOCCOCc3ccccc3)c(OCCOCCOCCOC(=O)CCCN3CCCCC3)c2)cc(OCCCCCCCCCCC)c1 [IAJD 158] | 0.246 | 75 | 0.246 | 75 | 7.38 | Lung (strong) | – |
| CCCCCCCCCCCCOc1cc(COC(=O)CCCN2CCCCC2)cc(OCCCCCCCCCCCC)c1 [IAJD 65, 3,5-Bis(dodecyloxy)benzyl 4-(piperidin-1-yl)butanoate] | – | – | – | – | – | – | PDI [1, 3]: 0.249; Size (d, nm) [1, 3]: 241 nm; PDI [1, 4]: 0.249; Size (d, nm) [1, 4]: 241 nm; PDI [1, 5]: 0.249; Size (d, nm) [1, 5]: 241 nm; pKa [2, 6]: 7.4 |
| CCCCCCCCCCCCCCCCOc1cc(COC(=O)CCCN2CCN(CCO)CC2)cc(OCCCCCCCCCCC)c1 [IAJD 120, 3-(Hexadecyloxy)-5-(undecyloxy)benzyl 4-(4-(2-hydroxyethyl)piperazin-1-yl)butanoate] | 0.474 | 212 | 0.474 | 212 | 6.37 | – | Organs with luminescence: spleen (spleen): Spleen (strong) |

More lines, main results first:

| PDI [1, 11] | Size (d, nm) [1, 11] [nm] | PDI [1, 12] | Size (d, nm) [1, 12] [nm] | pKa ([2]; individual IAJD molecules) | Molecule | Organs with luminescence: lung (lung; mice) | also measured |
| --- | --- | --- | --- | --- | --- | --- | --- |
| 0.236 | 75 | 0.236 | 75 | 7.43 | CCCCCCCCCCCCCCOc1cc(COC(=O)c2cc(OCCOCCOCCCC(=O)CCCN3CCCCC3)c(OCCOCCOCCOCc3ccccc3)c(OCCOCCOCCOC(=O)CCCN3CCCCC3)c2)cc(OCCCCCCCCCCC)c1 [IAJD 156] | Lung (strong) | – |
| 0.218 | 91 | 0.218 | 91 | 7.4 | CCCCCCCCCCCCCCCCCOc1cc(CNC(=O)c2cc(OCCOCCOCCOC(=O)CCCN3CCCCC3)c(OCCCOCOCCOCc3ccccc3)c(OCCOCCOCCOC(=O)CCCN3CCCCC3)c2)cc(OCCCCCCCCCCCCCCCCC)c1 [IAJD 159] | Lung (strong) | – |
